Experimental findings from patent publication US9034921B2, “Diphenylmethane derivatives as SGLT2 inhibitors” (GREEN CROSS CORPORATION, priority 2011, dated 2015) are described below.

Molecules are shown by their SMILES.

For this experiment, the target named is human SGLT2 (Homo sapiens (Human), UniProt P31639). Description: Inhibitory effects on human SGLT2 activities (14C-AMG uptake, sodium-dependent glucose transport assay). The class given is cell-based. The settings on record: CHO cells stably expressing hSGLT2, 37° C., 2 h, single determinations. An excerpt: Test 1: Cloning and Cell Line Construction for Human SGLT2
Chain of human SGLT2 (P31639 whole entry): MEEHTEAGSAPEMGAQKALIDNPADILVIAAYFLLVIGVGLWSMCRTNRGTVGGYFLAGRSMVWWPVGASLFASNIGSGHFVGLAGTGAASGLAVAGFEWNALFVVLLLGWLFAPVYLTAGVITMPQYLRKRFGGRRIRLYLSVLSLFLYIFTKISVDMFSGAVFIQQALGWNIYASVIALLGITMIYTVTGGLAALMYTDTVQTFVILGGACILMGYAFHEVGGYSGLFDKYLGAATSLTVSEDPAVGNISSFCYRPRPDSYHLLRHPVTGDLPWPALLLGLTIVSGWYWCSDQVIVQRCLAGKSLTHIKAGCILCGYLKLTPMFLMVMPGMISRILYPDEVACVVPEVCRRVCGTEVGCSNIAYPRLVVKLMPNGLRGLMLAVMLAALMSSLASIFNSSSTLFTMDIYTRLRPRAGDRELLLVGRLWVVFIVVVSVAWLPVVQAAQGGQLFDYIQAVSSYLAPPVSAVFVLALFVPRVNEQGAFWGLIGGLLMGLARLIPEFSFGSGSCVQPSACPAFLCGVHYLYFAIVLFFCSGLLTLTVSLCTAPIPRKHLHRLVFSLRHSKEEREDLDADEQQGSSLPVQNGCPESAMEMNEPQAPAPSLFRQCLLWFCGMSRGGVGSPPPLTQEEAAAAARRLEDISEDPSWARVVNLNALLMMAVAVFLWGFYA
Human SGLT2 (hSGLT2) gene was amplified by PCR from cDNA-Human Adult Normal Tissue Kidney (Invitrogen). The hSGLT2 sequence was cloned into pcDNA3.1(+) for mammalian expression and stably transfected into chinese hamster ovary (CHO) cells. SGLT2-expressing clones were selected based on resistance to G418 antibiotic (Geneticin) and activity in the ^14C-α-methyl-D-glucopyranoside (^14C-AMG) uptake assay.
Test 2: Inhibitory Effects on Human SGLT2 Activities
For sodium-dependent glucose transport assay, cells expressing hSGLT2 were seeded into a 96-well culture plate at a density of 5×10^4 cells/well in RPMI medium 1640 containing 10% fetal bovine serum. The cells were used 1 day after plating. They were incubated in pretreatment buffer (10 mM HEPES, 5 mM Tris, 140 mM choline chloride, 2 mM KCl, 1 mM CaCl2, and 1 mM MgCl2, pH 7.4) at 37° C. for 10 min. They were then incubated in uptake buffer (10 mM HEPES, 5 mM Tris, 140 mM NaCl, 2 mM KCl, 1 mM CaCl2, 1 mM MgCl2, and 1 mM ^14C-nonlabeled AMG pH 7.4) containing ^14C-labeled AMG (8 μM) and the inventive compound or dimethyl sulfoxide (DMSO) vehicle at 37° C. for 2 h. Cells were washed twice with washing buffer (pretreatment buffer containing 10 mM AMG at room temperature) and then the radioactivity was measured using a liquid scintillation counter. IC50 was determined by nonlinear regression analysis using GraphPad PRISM [Katsuno, K. et al. J. Pharmacol. Exp. Ther. 2007, 320, 323-330; Han, S. et al. Diabetes, 2008, 57, 1723-1729].
One may read the IC50 as the concentration that inhibits the measured activity by half. As to `COc1ccc(Cc2cc([C@@H]3O[C@H](CO)[C@@H](O)[C@H](O)[C@H]3O)c3c(c2Br)CCC3)cc1` [Example E001, (2S,3R,4R,5S,6R)-2-(7-Bromo-6-(4-methoxybenzyl)-2,3-dihydro-1H-inden-4-yl)-6-(hydroxymethyl)tetrahydro-2H-pyran-3,4,5-triol], it took 1.15 nM to reach half-maximal inhibition (IC50). That is a single-digit nanomolar value.
In the case of `CCOc1ccc(Cc2cc3c(c([C@@H]4O[C@H](CO)[C@@H](O)[C@H](O)[C@H]4O)c2)CCC3)cc1` [Example E002, (2S,3R,4R,5S,6R)-2-(6-(4-Ethoxybenzyl)-2,3-dihydro-1H-inden-4-yl)-6-(hydroxymethyl)tetrahydro-2H-pyran-3,4,5-triol] it was 9 nM; in that of `CCOc1ccc(Cc2cc([C@@H]3O[C@H](CO)[C@@H](O)[C@H](O)[C@H]3O)c3c(c2Br)CCC3)cc1` [Example E003, (2S,3R,4R,5S,6R)-2-(7-Bromo-6-(4-ethoxybenzyl)-2,3-dihydro-1H-inden-4-yl)-6-(hydroxymethyl)tetrahydro-2H-pyran-3,4,5-triol], 0.738 nM.
In the case of `CCc1ccc(Cc2cc([C@@H]3O[C@H](CO)[C@@H](O)[C@H](O)[C@H]3O)c3c(c2Br)CCC3)cc1` [Example E004, (2S,3R,4R,5S,6R)-2-(7-Bromo-6-(4-ethylbenzyl)-2,3-dihydro-1H-inden-4-yl)-6-(hydroxymethyl)tetrahydro-2H-pyran-3,4,5-triol] it was 0.661 nM; in that of `COc1ccc(Cc2cc([C@@H]3O[C@H](CO)[C@@H](O)[C@H](O)[C@H]3O)c3c(c2Cl)CCC3)cc1` [Example E005, (2S,3R,4R,5S,6R)-2-(7-Chloro-6-(4-methoxybenzyl)-2,3-dihydro-1H-inden-4-yl)-6-(hydroxymethyl)tetrahydro-2H-pyran-3,4,5-triol], 0.681 nM; in that of `COc1ccc(Cc2cc([C@@H]3O[C@H](CO)[C@@H](O)[C@H](O)[C@H]3O)c3c(c2F)CCC3)cc1` [Example E006, (2S,3R,4R,5S,6R)-2-(7-Fluoro-6-(4-methoxybenzyl)-2,3-dihydro-1H-inden-4-yl)-6-(hydroxymethyl)tetrahydro-2H-pyran-3,4,5-triol], 2.03 nM.
Turning to `COc1ccc(Cc2cc([C@@H]3O[C@H](CO)[C@@H](O)[C@H](O)[C@H]3O)c3c(c2C)CCC3)cc1` [Example E007, (2R,3S,4R,5R,6S)-2-(Hydroxymethyl)-6-(6-(4-methoxybenzyl)-7-methyl-2,3-dihydro-1H-inden-4-yl)tetrahydro-2H-pyran-3,4,5-triol], inhibition was half-maximal at 0.793 nM (IC50). Against the preceding molecule, the IC50 is about 2.6-fold lower.
Molecule `CCOc1ccc(Cc2cc([C@@H]3O[C@H](CO)[C@@H](O)[C@H](O)[C@H]3O)c3c(c2Cl)CCC3)cc1` [Example E008, (2S,3R,4R,5S,6R)-2-(7-Chloro-6-(4-ethoxybenzyl)-2,3-dihydro-1H-inden-4-yl)-6-(hydroxymethyl)tetrahydro-2H-pyran-3,4,5-triol] displayed an IC50 of 0.551 nM. This IC50 and that of the molecule before are within 1.5-fold of each other.
In the case of `CCc1ccc(Cc2cc([C@@H]3O[C@H](CO)[C@@H](O)[C@H](O)[C@H]3O)c3c(c2Cl)CCO3)cc1` [Example E010, (2S,3R,4R,5S,6R)-2-(4-Chloro-5-(4-ethylbenzyl)-2,3-dihydrobenzofuran-7-yl)-6-(hydroxymethyl)tetrahydro-2H-pyran-3,4,5-triol] it was 0.884 nM; in that of `CCOc1ccc(Cc2cc([C@@H]3O[C@H](CO)[C@@H](O)[C@H](O)[C@H]3O)c3c(c2Cl)CC(C)O3)cc1` (stereo partly drawn) [Example E011, (2S,3R,4R,5S,6R)-2-(4-Chloro-5-(4-ethoxybenzyl)-2-methyl-2,3-dihydrobenzofuran-7-yl)-6-(hydroxymethyl)tetrahydro-2H-pyran-3,4,5-triol], 1.28 nM.
Regarding `CCOc1ccc(Cc2cc([C@@H]3O[C@H](CO)[C@@H](O)[C@H](O)[C@H]3O)c3c(c2Cl)CCCO3)cc1` [Example E012, (2S,3R,4R,5S,6R)-2-(5-Chloro-6-(4-ethoxybenzyl)chroman-8-yl)-6-(hydroxymethyl)tetrahydro-2H-pyran-3,4,5-triol], the IC50 came out at 1.55 nM.
In the case of `CCOc1ccc(Cc2cc([C@@H]3O[C@H](CO)[C@@H](O)[C@H](O)[C@H]3O)c3c(c2Cl)OCCO3)cc1` [Example E013, (2S,3R,4R,5S,6R)-2-(8-Chloro-7-(4-ethoxybenzyl)-2,3-dihydrobenzo[b][1,4]dioxin-5-yl)-6-(hydroxymethyl)tetrahydro-2H-pyran-3,4,5-triol] it was 1.27 nM.
The molecule `COc1ccc(Cc2cc([C@@H]3O[C@H](CO)[C@@H](O)[C@H](O)[C@H]3O)c3c(c2Cl)CCCO3)cc1` [Example E016, (2S,3R,4R,5S,6R)-2-(5-Chloro-6-(4-methoxybenzyl)chroman-8-yl)-6-(hydroxymethyl)tetrahydro-2H-pyran-3,4,5-triol] gave an IC50 of 0.978 nM.
`CCc1ccc(Cc2cc([C@@H]3O[C@H](CO)[C@@H](O)[C@H](O)[C@H]3O)c3c(c2Cl)CCCO3)cc1` [Example E017, (2S,3R,4R,5S,6R)-2-(5-Chloro-6-(4-ethylbenzyl)chroman-8-yl)-6-(hydroxymethyl)tetrahydro-2H-pyran-3,4,5-triol] displayed an IC50 of 0.845 nM.
As to `COc1ccc(Cc2cc([C@@H]3O[C@H](CO)[C@@H](O)[C@H](O)[C@H]3O)c3c(c2Cl)OCC3)cc1` [Example E019, (2S,3R,4R,5S,6R)-2-(7-Chloro-6-(4-methoxybenzyl)-2,3-dihydrobenzofuran-4-yl)-6-(hydroxymethyl)tetrahydro-2H-pyran-3,4,5-triol], the IC50 was 1.53 nM.
Take `CCc1ccc(Cc2cc([C@@H]3O[C@H](CO)[C@@H](O)[C@H](O)[C@H]3O)c3c(c2Cl)OCC3)cc1` [Example E020, (2S,3R,4R,5S,6R)-2-(6-(4-Ethylbenzyl)-7-chloro-2,3-dihydrobenzofuran-4-yl)-6-(hydroxymethyl)-tetrahydro-2H-pyran-3,4,5-triol]: the IC50 amounted to 0.715 nM.
`COc1ccc(Cc2cc([C@@H]3O[C@H](CO)[C@@H](O)[C@H](O)[C@H]3O)c3c(c2Cl)CCO3)cc1` [Example E021, (2S,3R,4R,5S,6R)-2-(4-Chloro-5-(4-methoxybenzyl)-2,3-dihydrobenzofuran-7-yl)-6-(hydroxymethyl)tetrahydro-2H-pyran-3,4,5-triol] displayed an IC50 of 1.72 nM.
In the case of `CCOc1ccc(Cc2cc([C@@H]3O[C@H](CO)[C@@H](O)[C@H](O)[C@H]3O)c3c(c2Cl)CCO3)cc1` [Example E022, (2S,3R,4R,5S,6R)-2-(4-Chloro-5-(4-ethoxybenzyl)-2,3-dihydrobenzofuran-7-yl)-6-(hydroxymethyl)tetrahydro-2H-pyran-3,4,5-triol] it was 0.833 nM; in that of `CCc1ccc(Cc2cc([C@@H]3O[C@H](CO)[C@@H](O)[C@H](O)[C@H]3O)c3c(c2Cl)OCCC3)cc1` [Example E023, (2S,3R,4R,5S,6R)-2-(8-Chloro-7-(4-ethylbenzyl)chroman-5-yl)-6-(hydroxymethyl)tetrahydro-2H-pyran-3,4,5-triol], 0.753 nM.
As to `CCOc1ccc(Cc2cc([C@@H]3O[C@H](CO)[C@@H](O)[C@H](O)[C@H]3O)c3c(c2Cl)OCC3)cc1` [Example E024, (2S,3R,4R,5S,6R)-2-(7-Chloro-6-(4-ethoxybenzyl)-2,3-dihydrobenzofuran-4-yl)-6-(hydroxymethyl)tetrahydro-2H-pyran-3,4,5-triol], the IC50 was 1.52 nM.
`OC[C@H]1O[C@@H](c2ccc(Cl)c(Cc3ccc4ncccc4c3)c2)[C@H](O)[C@@H](O)[C@@H]1O` [Example E025, (2S,3R,4R,5S,6R)-2-(4-Chloro-3-(quinolin-6-ylmethyl)phenyl)-6-(hydroxymethyl)tetrahydro-2H-pyran-3,4,5-triol] registered an IC50 of 1.85 nM. The IC50 values of the last two molecules are within 1.5-fold of each other.
In the case of `OC[C@H]1O[C@@H](c2ccc(Cl)c(Cc3ccc4nccnc4c3)c2)[C@H](O)[C@@H](O)[C@@H]1O` [Example E026, (2S,3R,4R,5S,6R)-2-(4-Chloro-3-(quinoxalin-6-ylmethyl)phenyl)-6-(hydroxymethyl)tetrahydro-2H-pyran-3,4,5-triol] it was 8.63 nM; in that of `OC[C@H]1O[C@@H](c2ccc(Cl)c(Cc3ccc4c(c3)OCCCO4)c2)[C@H](O)[C@@H](O)[C@@H]1O` [Example E029, (2S,3R,4R,5S,6R)-2-(4-Chloro-3-((3,4-dihydro-2H-benzo[b][1,4]dioxepin-7-yl)methyl)phenyl)-6-(hydroxymethyl)tetrahydro-2H-pyran-3,4,5-triol], 4.38 nM.
In the case of `Cc1ccc([C@@H]2O[C@H](CO)[C@@H](O)[C@H](O)[C@H]2O)cc1Cc1ccc2c(c1)OCCCO2` [Example E030, (2S,3R,4R,5S,6R)-2-(3-((3,4-Dihydro-2H-benzo[b][1,4]dioxepin-7-yl)methyl)-4-methylphenyl)-6-(hydroxymethyl)tetrahydro-2H-pyran-3,4,5-triol] it was 9.62 nM; in that of `OC[C@H]1O[C@@H](c2ccc(Cl)c(Cc3ccc4sccc4c3)c2)[C@H](O)[C@@H](O)[C@@H]1O` [Example E031, (2S,3R,4R,5S,6R)-2-(3-(Benzo[b]thiophen-5-ylmethyl)-4-chlorophenyl)-6-(hydroxymethyl)tetrahydro-2H-pyran-3,4,5-triol], 0.865 nM.
